Source: ChEMBL document CHEMBL3600349 (Bioorg Med Chem Lett, 2015)

Legend:
[1] = target: Melanin-concentrating hormone receptor 1 (Homo sapiens, UniProt Q99705); assay: Displacement of [125I]-MCH from human MCH-R1 expressed in CHO/Galpha16 cells after 60 mins by scintillation counting; assay type: cell-based
[2] = Lipophilicity, log P of the compound by HPLC analysis; assay type: physicochemical
[3] = Half life in rat liver microsomes; assay type: ADME
[4] = Intrinsic clearance in human hepatocytes assessed per 10^6 cells; assay type: ADME, cell-based, Hepatocyte; conditions: read-out: CLH
[5] = target: hERG (KCNH2) (Homo sapiens, UniProt Q12809); assay: Inhibition of human ERG at 10 uM by patch clamp assay
[6] = tested on: U-937; assay: Toxicity in human U937 cells assessed as first effect concentration for phospholipidosis by nile red uptake assay; assay type: cell-based
[7] = organism: Homo sapiens; assay: Selectivity ratio, ratio of muscarinic M1 receptor (unknown origin) to human MCH-R1
[8] = organism: Homo sapiens; assay: Selectivity ratio, ratio of 5HT2A receptor (unknown origin) to human MCH-R1

Chain of Melanin-concentrating hormone receptor 1 (Q99705 whole entry): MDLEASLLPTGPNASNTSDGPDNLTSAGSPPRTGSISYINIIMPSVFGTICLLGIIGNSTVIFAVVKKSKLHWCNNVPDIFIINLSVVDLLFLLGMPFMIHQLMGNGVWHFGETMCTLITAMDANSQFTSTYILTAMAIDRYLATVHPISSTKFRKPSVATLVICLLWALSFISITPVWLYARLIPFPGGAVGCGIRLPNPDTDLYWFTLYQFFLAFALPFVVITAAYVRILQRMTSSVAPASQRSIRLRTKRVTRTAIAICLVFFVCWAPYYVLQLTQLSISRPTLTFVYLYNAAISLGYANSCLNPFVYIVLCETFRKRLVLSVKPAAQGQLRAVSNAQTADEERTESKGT
Chain of hERG (KCNH2) (Q12809 whole entry): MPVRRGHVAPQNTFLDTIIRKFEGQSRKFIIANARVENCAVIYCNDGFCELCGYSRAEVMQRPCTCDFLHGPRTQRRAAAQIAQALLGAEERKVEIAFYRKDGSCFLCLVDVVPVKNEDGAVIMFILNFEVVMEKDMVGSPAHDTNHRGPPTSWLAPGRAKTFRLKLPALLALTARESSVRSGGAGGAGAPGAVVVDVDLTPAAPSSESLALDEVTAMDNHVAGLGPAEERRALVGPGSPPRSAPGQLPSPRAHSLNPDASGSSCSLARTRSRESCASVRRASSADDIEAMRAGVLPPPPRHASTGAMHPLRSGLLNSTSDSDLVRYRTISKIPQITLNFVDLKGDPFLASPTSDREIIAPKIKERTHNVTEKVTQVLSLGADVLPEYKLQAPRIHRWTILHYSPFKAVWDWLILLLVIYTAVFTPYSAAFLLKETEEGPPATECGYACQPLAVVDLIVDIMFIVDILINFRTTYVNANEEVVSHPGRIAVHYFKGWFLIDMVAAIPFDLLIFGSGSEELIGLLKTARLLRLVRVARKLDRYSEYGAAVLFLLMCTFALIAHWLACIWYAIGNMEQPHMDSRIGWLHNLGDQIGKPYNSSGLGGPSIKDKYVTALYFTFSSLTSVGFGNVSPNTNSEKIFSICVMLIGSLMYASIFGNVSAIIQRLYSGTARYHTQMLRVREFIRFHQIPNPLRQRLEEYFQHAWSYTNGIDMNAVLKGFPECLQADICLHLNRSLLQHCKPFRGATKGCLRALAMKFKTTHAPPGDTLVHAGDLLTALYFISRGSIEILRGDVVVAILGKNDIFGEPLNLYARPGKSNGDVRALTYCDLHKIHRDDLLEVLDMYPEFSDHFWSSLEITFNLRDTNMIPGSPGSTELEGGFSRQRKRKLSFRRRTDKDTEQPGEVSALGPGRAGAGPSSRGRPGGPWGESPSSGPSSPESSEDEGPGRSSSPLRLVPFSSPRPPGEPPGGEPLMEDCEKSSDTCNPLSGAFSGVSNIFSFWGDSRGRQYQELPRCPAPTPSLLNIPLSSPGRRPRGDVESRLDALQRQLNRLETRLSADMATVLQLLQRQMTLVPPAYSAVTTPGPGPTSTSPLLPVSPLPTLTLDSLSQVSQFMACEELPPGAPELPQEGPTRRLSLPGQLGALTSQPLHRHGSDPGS

| IC50 [1] [nM] | logP [2] | half-life [3] [min] | hepatocyte CLint [4] [µL/min/1e6 cells] | Ratio [7] | Ratio [8] | SMILES | inhibition at 10 µM [5] [%] | Activity [6] [µM] |
| --- | --- | --- | --- | --- | --- | --- | --- | --- |
| 8.7 | 3.8 | 15 | 4.8 | – | – | Cc1cc(CN(C)C)ccc1C(=O)Cn1ncc(OCc2ccccc2)cc1=O | 88 | 50 |
| 13 | 3 | 23 | 24 | > 200 | > 200 | CN(C)Cc1ccc(C(=O)Cn2ccc(OCc3ccccc3)cc2=O)cc1 | 63 | 100 |
| 33 | 2.7 | 44 | 14 | – | – | Cc1cc(CN(C)C)ccc1C(=O)Cn1ccc(OCc2ccc(Cl)cn2)cc1=O | 41 | 50 |
